Laboratory results from paper PMC8086052 (Japanese Journal of Clinical Oncology, 2021).
Entries after “also recorded” stand apart in the source; their conditions may differ. Where two headings read alike, the source gives them in different places.

Key:
[1] = tested on: Japanese patients with advanced solid tumours; conditions: for Tolerability: 200 or 300 mg/day, Japanese patients with advanced solid tumours; for Patients with dose-limiting toxicity (DLT) in cycle 1: cohort 2, 300 mg/day (n = 6)
[2] = cancer patients; cited from earlier work
[3] = tested on: newly diagnosed advanced ovarian cancer; conditions: regardless of presence or absence of HRd; cited from earlier work
[4] = tested on: non-Japanese patients with advanced solid tumours; conditions: phase I studies in USA and Europe; cited from earlier work
[5] = tested on: metastatic or locally advanced solid tumours
[6] = cited from earlier work
[7] = Plasma pharmacokinetics of niraparib and M1, cycle 1 days 1 and 21; assay type: in vivo, human; conditions: for AUC(0-t) / Cmax: oral; for Cmax / Cmin: geometric mean (SD)
[8] = tested on: platinum-sensitive recurrent ovarian cancer; conditions: cited from earlier work
[9] = Niraparib 200 mg/day (n = 3), Any grade
[10] = Niraparib 200 mg/day (n = 3), Grade 3/4
[11] = Niraparib 300 mg/day (n = 6), Any grade
[12] = Niraparib 300 mg/day (n = 6), Grade 3/4
[13] = cohort 2, 300 mg/day, listed as niraparib
[14] = cohort 2, 300 mg/day, three patients

NC(=O)c1cccc2cn(-c3ccc([C@@H]4CCCNC4)cc3)nc12 [Niraparib, niraparib]
Time to recovery from grade 4 thrombocytopenia / platelet count decreased ([1]; 300 mg/day cohort): ~ 10 days | Patients with grade 4 thrombocytopenia or platelet count decreased ([1]; 300 mg/day cohort, day 14 of cycle 1 and day 8 of cycle 2): two patients | AEs of special interest (myelodysplastic syndrome, acute myeloid leukaemia, hypertensive crisis) ([1]; 200 and 300 mg/day): no AEs of special interest | Tolerability [1]: tolerable | Tolerability ([1]; listed as niraparib): generally safe and tolerable | Patients with events: ALT increased [1, 9]: 0 n (%) | Patients with events: AST increased [1, 9]: 0 n (%) | Patients with events: Anaemia [1, 9]: 0 n (%) | Patients with events: Any TEAE [1, 9]: 3 (100.0) n (%) | Patients with events: Blood ALP increased [1, 9]: 1 (33.3) n (%) | Patients with events: Blood creatinine increased [1, 9]: 1 (33.3) n (%) | Patients with events: Chest pain [1, 9]: 0 n (%) | Patients with events: Constipation [1, 9]: 1 (33.3) n (%) | Patients with events: Decreased appetite [1, 9]: 2 (66.7) n (%) | Patients with events: Diabetes mellitus [1, 9]: 0 n (%) | Patients with events: Diarrhoea [1, 9]: 0 n (%) | Patients with events: Fatigue [1, 9]: 2 (66.7) n (%) | Patients with events: Febrile neutropenia [1, 9]: 0 n (%) | Patients with events: GGT increased [1, 9]: 0 n (%) | Patients with events: Hypertension [1, 9]: 0 n (%) | Patients with events: Malaise [1, 9]: 1 (33.3) n (%) | Patients with events: Nausea [1, 9]: 1 (33.3) n (%) | Patients with events: Platelet count decreased [1, 9]: 1 (33.3) n (%) | Patients with events: Pyelonephritis [1, 9]: 0 n (%) | Patients with events: Thrombocytopenia [1, 9]: 0 n (%) | Patients with events: Vomiting [1, 9]: 2 (66.7) n (%) | Patients with events: White blood cell count decreased [1, 9]: 1 (33.3) n (%) | Patients with events: ALT increased [1, 10]: 0 n (%) | Patients with events: AST increased [1, 10]: 0 n (%) | Patients with events: Anaemia [1, 10]: 0 n (%) | Patients with events: Any TEAE [1, 10]: 1 (33.3) n (%) | Patients with events: Blood ALP increased [1, 10]: 1 (33.3) n (%) | Patients with events: Blood creatinine increased [1, 10]: 0 n (%) | Patients with events: Chest pain [1, 10]: 0 n (%) | Patients with events: Constipation [1, 10]: 0 n (%) | Patients with events: Decreased appetite [1, 10]: 0 n (%) | Patients with events: Diabetes mellitus [1, 10]: 0 n (%) | Patients with events: Diarrhoea [1, 10]: 0 n (%) | Patients with events: Fatigue [1, 10]: 0 n (%) | Patients with events: Febrile neutropenia [1, 10]: 0 n (%) | Patients with events: GGT increased [1, 10]: 0 n (%) | Patients with events: Hypertension [1, 10]: 0 n (%) | Patients with events: Malaise [1, 10]: 0 n (%) | Patients with events: Nausea [1, 10]: 0 n (%) | Patients with events: Platelet count decreased [1, 10]: 0 n (%) | Patients with events: Pyelonephritis [1, 10]: 0 n (%) | Patients with events: Thrombocytopenia [1, 10]: 0 n (%) | Patients with events: Vomiting [1, 10]: 0 n (%) | Patients with events: White blood cell count decreased [1, 10]: 1 (33.3) n (%) | Patients with events: ALT increased [1, 11]: 3 (50.0) n (%) | Patients with events: AST increased [1, 11]: 5 (83.3) n (%) | Patients with events: Anaemia [1, 11]: 3 (50.0) n (%) | Patients with events: Any TEAE [1, 11]: 6 (100.0) n (%) | Patients with events: Blood ALP increased [1, 11]: 4 (66.7) n (%) | Patients with events: Blood creatinine increased [1, 11]: 1 (16.7) n (%) | Patients with events: Chest pain [1, 11]: 2 (33.3) n (%) | Patients with events: Constipation [1, 11]: 2 (33.3) n (%) | Patients with events: Decreased appetite [1, 11]: 2 (33.3) n (%) | Patients with events: Diabetes mellitus [1, 11]: 1 (16.7) n (%) | Patients with events: Diarrhoea [1, 11]: 2 (33.3) n (%) | Patients with events: Fatigue [1, 11]: 1 (16.7) n (%) | Patients with events: Febrile neutropenia [1, 11]: 1 (16.7) n (%) | Patients with events: GGT increased [1, 11]: 3 (50.0) n (%) | Patients with events: Hypertension [1, 11]: 2 (33.3) n (%) | Patients with events: Malaise [1, 11]: 2 (33.3) n (%) | Patients with events: Nausea [1, 11]: 4 (66.7) n (%) | Patients with events: Platelet count decreased [1, 11]: 5 (83.3) n (%) | Patients with events: Pyelonephritis [1, 11]: 1 (16.7) n (%) | Patients with events: Thrombocytopenia [1, 11]: 1 (16.7) n (%) | Patients with events: Vomiting [1, 11]: 2 (33.3) n (%) | Patients with events: White blood cell count decreased [1, 11]: 1 (16.7) n (%) | Patients with events: ALT increased [1, 12]: 1 (16.7) n (%) | Patients with events: AST increased [1, 12]: 0 n (%) | Patients with events: Anaemia [1, 12]: 1 (16.7) n (%) | Patients with events: Any TEAE [1, 12]: 4 (66.7) n (%) | Patients with events: Blood ALP increased [1, 12]: 1 (16.7) n (%) | Patients with events: Blood creatinine increased [1, 12]: 0 n (%) | Patients with events: Chest pain [1, 12]: 0 n (%) | Patients with events: Constipation [1, 12]: 0 n (%) | Patients with events: Decreased appetite [1, 12]: 0 n (%) | Patients with events: Diabetes mellitus [1, 12]: 1 (16.7) n (%) | Patients with events: Diarrhoea [1, 12]: 0 n (%) | Patients with events: Fatigue [1, 12]: 0 n (%) | Patients with events: Febrile neutropenia [1, 12]: 1 (16.7) n (%) | Patients with events: GGT increased [1, 12]: 2 (33.3) n (%) | Patients with events: Hypertension [1, 12]: 0 n (%) | Patients with events: Malaise [1, 12]: 0 n (%) | Patients with events: Nausea [1, 12]: 0 n (%) | Patients with events: Platelet count decreased [1, 12]: 1 (16.7) n (%) | Patients with events: Pyelonephritis [1, 12]: 1 (16.7) n (%) | Patients with events: Thrombocytopenia [1, 12]: 1 (16.7) n (%) | Patients with events: Vomiting [1, 12]: 0 n (%) | Patients with events: White blood cell count decreased [1, 12]: 0 n (%) | Patients who discontinued treatment due to a TEAE ([1]; cohort 1, 200 mg/day): no patient | Treatment-related TEAE: decreased appetite ([1]; cohort 1, 200 mg/day): 2 n | Patients with grade 3 treatment-related AEs ([1]; cohort 1, 200 mg/day, blood alkaline phosphatase increased, white blood cell count decreased): one patient | Treatment-related TEAE: decreased appetite ([1]; cohort 1, 200 mg/day, listed as niraparib): 66.7% | Patients with grade ≥ 3 treatment-related AEs ([1]; cohort 2, 300 mg/day): five patients | Patients with treatment-related grade 3 alanine aminotransferase increased ([1]; cohort 2, 300 mg/day): one patient | Patients with treatment-related grade 3 anaemia ([1]; cohort 2, 300 mg/day): two patients | Patients with treatment-related grade 3 febrile neutropenia ([1]; cohort 2, 300 mg/day): one patient | Patients with treatment-related grade 3 gamma-glutamyl transferase increased ([1]; cohort 2, 300 mg/day): one patient | Total number of grade ≥ 3 treatment-related AEs ([1]; cohort 2, 300 mg/day): 11 | Treatment-related TEAE: aspartate aminotransferase increased ([1]; cohort 2, 300 mg/day): 5 n | Treatment-related TEAE: platelet count decreased ([1]; cohort 2, 300 mg/day): 5 n | Patients with dose-limiting toxicity (DLT) in cycle 1 [1]: 16.7% | Patients with dose-limiting toxicity (DLT) in cycle 1 ([1]; grade 4 platelet count decreased): one patient | Treatment-related TEAE: aspartate aminotransferase increased [1, 13]: 83.3% | Treatment-related TEAE: platelet count decreased [1, 13]: 83.3% | Patients who discontinued treatment due to a TEAE ([1]; cohort 2, 300 mg/day, malaise and gamma-glutamyl transferase increased): Two patients | Patients with a serious AE ([1]; cohort 2, 300 mg/day, pyelonephritis, considered unrelated to niraparib): One patient | Treatment-related TEAE: alkaline phosphatase increased [1, 14]: 50.0% | Treatment-related TEAE: anaemia [1, 14]: 50.0% | Treatment-related TEAE: nausea [1, 14]: 50.0% | bioavailability after oral administration [2]: ~ 73% | progression-free survival (PFS) compared with placebo [3]: significantly prolonged | maximum tolerated dose (MTD) [4]: 300 mg once daily | Patients with PD (progressive disease) ([5]; both cohorts): four | Patients with partial response ([5]; both in cohort 2 (300 mg/day), lung cancer and bile duct cancer): Two patients | Patients with PD (progressive disease) ([5]; cohort 1, 200 mg/day): All patients | tumour exposure at steady state [6]: high | Dose dependence of mean Cmax and AUC0–24 ([7]; 200 and 300 mg/day, after multiple doses): increased dose-proportionally; also recorded: generally increased in a dose-proportional manner | AUC(0-t) ([7]; human, plasma, 200 mg/day): 4930 ng·h/mL | Cmax ([7]; human, plasma, 200 mg/day, plasma, Cycle 1 Day 1, Niraparib 200 mg/day (n = 3)): 443 ng/mL | Cmax ([7]; human, plasma, 200 mg/day, plasma, Cycle 1 Day 21, Niraparib 200 mg/day (n = 3)): 729 ng/mL | AUC(0-t) ([7]; human, plasma, 300 mg/day): 6270 ng·h/mL | Cmax ([7]; human, plasma, 300 mg/day, plasma, Cycle 1 Day 1, Niraparib 300 mg/day (n = 6)): 530 ng/mL | Cmax ([7]; human, plasma, 300 mg/day, plasma, Cycle 1 Day 21, Niraparib 300 mg/day (n = 4)): 1170 ng/mL | Tmax ([7]; human, plasma, po, median tmax, single (cycle 1, day 1) and multiple (cycle 1, day 21) oral administration of niraparib 200 and 300 mg/day): 3 to 4 h | Cmin ([7]; plasma, Cycle 1 Day 21, Niraparib 200 mg/day (n = 3)): 405.8 (267.8) ng/ml | Cmin ([7]; plasma, Cycle 1 Day 21, Niraparib 300 mg/day (n = 4)): 592.3 (138.2) ng/ml | progression-free survival (PFS) compared with placebo ([8]; maintenance treatment, regardless of germline BRCA mutation status): significantly prolonged | Patients requiring a dosage reduction to 200 mg once daily ([8]; starting dosage 300 mg once daily): ~ 70%
